Results on seven cell lines are retold here after the supplement of paper PMC10307832.

Assay in all cases: relative viability (nuclei count vs DMSO), 5 days (fraction); higher = more cells survive
Compound in test [1]: O=C(CCCCCCNC(=O)c1cnc(N(c2ccccc2)c2ccccc2)nc1)NO [Ricolinostat] + Nc1ncn([C@H]2C[C@H](O)[C@@H](CO)O2)c(=O)n1 [Decitabine] (partner 2 µM)
In a few lines:
(§1)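 Lung cancer cell lines were pin-tool dosed in 1536-well plates on the day after seeding, with either a lone drug or a fixed anchor-drug dose plus five library-drug doses (not always all listed) in √10 steps. Nuclei were counted on 4× images after 5 days. Relative viability is the ratio of treated-well to vehicle-well nuclei counts, with each value a median of duplicate plates.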

Compound in test [2]: C1=CC=C(C(=C1)C2=CC=C(C=C2)C3=CSC4=C3C(=C(C(=O)N4)C#N)O)O + O=C(c1cc(Cc2n[nH]c(=O)c3ccccc23)ccc1F)N1CCN(C(=O)C2CC2)CC1 [Olaparib] (partner 8 µM)
In a few lines:
as §1

Compound in the test “TGX 221 + Foretinib”: CC1=CN2C(=O)C=C(N=C2C(=C1)C(C)NC3=CC=CC=C3)N4CCOCC4 [TGX 221] + COc1cc2c(Oc3ccc(NC(=O)C4(C(=O)Nc5ccc(F)cc5)CC4)cc3F)ccnc2cc1OCCCN1CCOCC1 [Foretinib] (partner 0.25 µM)
In a few lines: as §1

Compound in the test “TGX 221 + Palbociclib”: CC1=CN2C(=O)C=C(N=C2C(=C1)C(C)NC3=CC=CC=C3)N4CCOCC4 [TGX 221] + CC(=O)c1c(C)c2cnc(Nc3ccc(N4CCNCC4)cn3)nc2n(C2CCCC2)c1=O [Palbociclib] (partner 0.5 µM)
In a few lines: as §1

Regarding NCI-H1993, the relative viability in test [1] (first compound 0.08 µM) was determined as 0.571; in test [1] (first compound 0.253 µM), 0.588; in test [1] (first compound 0.8 µM), 0.599; in test [1] (first compound 2.53 µM), 0.709; in test [2] (first compound 0.08 µM) it was 0.988; in test [2] (first compound 0.253 µM) it was 1.67. Moreover, the relative viability in test [2] (first compound 0.8 µM) was 0.894; in test [2] (first compound 2.53 µM), 1.01; in test [2] (first compound 8 µM), 0.882; with TGX 221 + Foretinib (first compound 0.08 µM), 0.723; with TGX 221 + Foretinib (first compound 0.253 µM), 0.787; in the test with TGX 221 + Foretinib (first compound 0.8 µM), 0.755. Also, the relative viability with TGX 221 + Foretinib (first compound 2.53 µM) stood at 0.71; with TGX 221 + Foretinib (first compound 8 µM), 0.664; with TGX 221 + Palbociclib (first compound 0.08 µM) it was 0.54; with TGX 221 + Palbociclib (first compound 0.253 µM) it was 0.607; with TGX 221 + Palbociclib (first compound 0.8 µM), 0.54; with TGX 221 + Palbociclib (first compound 2.53 µM) it was 0.519. The relative viability with TGX 221 + Palbociclib (first compound 8 µM) was found to be 0.459.
On to COR-L 105, for which the relative viability in test [1] (first compound 0.08 µM) stood at 0.675; in test [1] (first compound 0.253 µM), 0.65; in test [1] (first compound 0.8 µM), 0.7; in test [1] (first compound 2.53 µM), 0.669; in test [2] (first compound 0.08 µM), 0.695; in test [2] (first compound 0.253 µM), 0.793. In addition, the relative viability came to 1.03 in test [2] (first compound 0.8 µM); 0.688 in test [2] (first compound 2.53 µM); 0.859 in test [2] (first compound 8 µM); 0.993 with TGX 221 + Foretinib (first compound 0.08 µM); 0.976 in the test with TGX 221 + Foretinib (first compound 0.253 µM); 0.99 in the test with TGX 221 + Foretinib (first compound 0.8 µM). For the same cell line, the relative viability in the test with TGX 221 + Foretinib (first compound 2.53 µM) is 0.825; with TGX 221 + Foretinib (first compound 8 µM), 0.781; with TGX 221 + Palbociclib (first compound 0.08 µM), 0.417; in the test with TGX 221 + Palbociclib (first compound 0.253 µM), 0.4; in the test with TGX 221 + Palbociclib (first compound 0.8 µM) it was 0.332; with TGX 221 + Palbociclib (first compound 2.53 µM), 0.473. Moreover, the relative viability with TGX 221 + Palbociclib (first compound 8 µM) is 0.41.
Turning to LK-2, the relative viability stood at 0.268 in test [1] (first compound 0.08 µM); 0.364 in test [1] (first compound 0.253 µM); 0.24 in test [1] (first compound 0.8 µM); 0.212 in test [1] (first compound 2.53 µM); 0.568 in test [2] (first compound 0.08 µM); 0.899 in test [2] (first compound 0.253 µM). Further, the relative viability in test [2] (first compound 0.8 µM) was found to be 0.883; in test [2] (first compound 2.53 µM), 0.822; in test [2] (first compound 8 µM), 0.753; with TGX 221 + Foretinib (first compound 0.08 µM), 1.2; in the test with TGX 221 + Foretinib (first compound 0.253 µM), 1.2; in the test with TGX 221 + Foretinib (first compound 0.8 µM), 1.53. Further, the relative viability worked out at 1.17 with TGX 221 + Foretinib (first compound 2.53 µM); 0.998 in the test with TGX 221 + Foretinib (first compound 8 µM); 0.647 with TGX 221 + Palbociclib (first compound 0.08 µM); 0.612 with TGX 221 + Palbociclib (first compound 0.253 µM); 0.621 with TGX 221 + Palbociclib (first compound 0.8 µM); 0.673 in the test with TGX 221 + Palbociclib (first compound 2.53 µM). Besides, the relative viability in the test with TGX 221 + Palbociclib (first compound 8 µM) was 0.833.
On to NCI-H650, for which the relative viability in test [1] (first compound 0.08 µM) is 0.312; in test [1] (first compound 0.253 µM), 0.301; in test [1] (first compound 0.8 µM), 0.315; in test [1] (first compound 2.53 µM) it was 0.306; in test [2] (first compound 0.08 µM), 0.42; in test [2] (first compound 0.253 µM), 0.375. The relative viability in test [2] (first compound 0.8 µM) amounted to 0.402; in test [2] (first compound 2.53 µM), 0.495; in test [2] (first compound 8 µM), 0.432; with TGX 221 + Foretinib (first compound 0.08 µM), 0.941; in the test with TGX 221 + Foretinib (first compound 0.253 µM) it was 0.944; in the test with TGX 221 + Foretinib (first compound 0.8 µM) it was 0.904. For the same cell line, the relative viability was 0.964 in the test with TGX 221 + Foretinib (first compound 2.53 µM); 0.976 in the test with TGX 221 + Foretinib (first compound 8 µM); 0.303 with TGX 221 + Palbociclib (first compound 0.08 µM); 0.294 with TGX 221 + Palbociclib (first compound 0.253 µM); 0.307 with TGX 221 + Palbociclib (first compound 0.8 µM); 0.32 in the test with TGX 221 + Palbociclib (first compound 2.53 µM). Besides, the relative viability with TGX 221 + Palbociclib (first compound 8 µM) is 0.273.
For NCI-H520, the relative viability in test [1] (first compound 0.253 µM) amounted to 0.521; in test [1] (first compound 0.8 µM), 0.513; in test [1] (first compound 2.53 µM), 0.426; in test [2] (first compound 0.08 µM), 0.283; in test [2] (first compound 0.253 µM), 0.318; in test [2] (first compound 0.8 µM), 0.363. Moreover, the relative viability in test [2] (first compound 2.53 µM) came out at 0.365; in test [2] (first compound 8 µM), 0.347; with TGX 221 + Foretinib (first compound 0.08 µM) it was 0.582; with TGX 221 + Foretinib (first compound 0.253 µM), 0.544; in the test with TGX 221 + Foretinib (first compound 0.8 µM), 0.509; with TGX 221 + Foretinib (first compound 2.53 µM), 0.372. The relative viability in the test with TGX 221 + Foretinib (first compound 8 µM) was found to be 0.427; with TGX 221 + Palbociclib (first compound 0.08 µM), 0.156; with TGX 221 + Palbociclib (first compound 0.253 µM), 0.139; with TGX 221 + Palbociclib (first compound 0.8 µM) it was 0.146; with TGX 221 + Palbociclib (first compound 2.53 µM), 0.166; in the test with TGX 221 + Palbociclib (first compound 8 µM) it was 0.132.
As to ABC-1, the relative viability worked out at 0.829 in test [1] (first compound 0.08 µM); 1.03 in test [1] (first compound 0.253 µM); 0.989 in test [1] (first compound 0.8 µM); 1.03 in test [1] (first compound 2.53 µM); 0.856 in test [2] (first compound 0.08 µM); 1.22 in test [2] (first compound 0.253 µM). For the same cell line, the relative viability in test [2] (first compound 0.8 µM) was found to be 1.06; in test [2] (first compound 2.53 µM), 0.701; in test [2] (first compound 8 µM), 0.829; with TGX 221 + Foretinib (first compound 0.08 µM), 1.1; in the test with TGX 221 + Foretinib (first compound 0.253 µM) it was 0.806; in the test with TGX 221 + Foretinib (first compound 0.8 µM), 0.817. Besides, the relative viability in the test with TGX 221 + Foretinib (first compound 2.53 µM) was 1.1; in the test with TGX 221 + Foretinib (first compound 8 µM), 0.835; with TGX 221 + Palbociclib (first compound 0.08 µM), 0.742; in the test with TGX 221 + Palbociclib (first compound 0.253 µM), 0.519; with TGX 221 + Palbociclib (first compound 0.8 µM) it was 0.654; with TGX 221 + Palbociclib (first compound 2.53 µM) it was 0.648. In addition, the relative viability with TGX 221 + Palbociclib (first compound 8 µM) turned out to be 0.597.
Take NCI-H322M: the relative viability in test [1] (first compound 0.08 µM) amounted to 0.616; in test [1] (first compound 0.253 µM) it was 0.708; in test [1] (first compound 0.8 µM) it was 0.721; in test [1] (first compound 2.53 µM), 0.754; in test [2] (first compound 0.08 µM) it was 0.69; in test [2] (first compound 0.253 µM) it was 0.742. The relative viability was 0.863 in test [2] (first compound 0.8 µM); 0.519 in test [2] (first compound 2.53 µM); 0.748 in test [2] (first compound 8 µM); 0.924 with TGX 221 + Foretinib (first compound 0.08 µM); 0.869 with TGX 221 + Foretinib (first compound 0.253 µM); 1 with TGX 221 + Foretinib (first compound 0.8 µM). Further, the relative viability turned out to be 0.763 in the test with TGX 221 + Foretinib (first compound 2.53 µM); 0.765 with TGX 221 + Foretinib (first compound 8 µM); 0.492 with TGX 221 + Palbociclib (first compound 0.08 µM); 0.484 with TGX 221 + Palbociclib (first compound 0.253 µM); 0.478 in the test with TGX 221 + Palbociclib (first compound 0.8 µM); 0.459 with TGX 221 + Palbociclib (first compound 2.53 µM). Besides, in the test with TGX 221 + Palbociclib (first compound 8 µM), the relative viability was found to be 0.388.
